Source: ChEMBL document CHEMBL4118221, “Vinyldiaminotriazine-acridine conjugate as G-quadruplex alkylating agent” (Bioorg Med Chem, 2018)
Activity calls are given as the source filed them. The rule behind the calls is not given here.

Assays:
[1] = target: Quadruplex DNA; test: Binding affinity to human telomeric G-quadruplex DNA in K+ buffer at 0.2 uM after 15 mins by spectrofluorometric method; format: nucleic-acid assay
[2] = tested on: Quadruplex DNA; test: Binding affinity to human telomeric G-quadruplex DNA in Na+ buffer at 0.2 uM after 15 mins by spectrofluorometric method; format: nucleic-acid assay
[3] = Binding affinity to T-T mismatched duplex DNA (unknown origin) in MES buffer at 0.2 uM after 15 mins by spectrofluorometric method
[4] = tested on: Quadruplex DNA; test: Alkylating activity at 12T base of human telomeric G-quadruplex DNA in K+ buffer at 100 uM using 9-mer primer after 72 hrs by primer extension method; format: functional
[5] = tested on: Quadruplex DNA; test: Alkylating activity at T base of human telomeric G-quadruplex DNA in K+ buffer assessed as thymidine-compound adduct formation at 100 uM using 9-mer primer after 72 hrs by alkaline phosphatase and phosphodiesterase-1 enzymatic hydrolysis assay based ESI-MS analysis; format: functional
[6] = tested on: Quadruplex DNA; test: Alkylating activity at 5'-FAM-labeled human telomeric G-quadruplex DNA at 100 uM in Na+ buffer measured up to 72 hrs by PAGE analysis; format: functional
[7] = tested on: Quadruplex DNA; test: Effect on conformation of human telomeric G-quadruplex DNA in Na+ buffer by circular dichroism spectral analysis; format: nucleic-acid assay
[8] = tested on: Quadruplex DNA; test: Alkylating activity at 5'-FAM-labeled human telomeric G-quadruplex DNA in K+ buffer at 100 uM measured up to 72 hrs by PAGE analysis; format: functional
[9] = tested on: Quadruplex DNA; test: Alkylating activity at T bases of human telomeric G-quadruplex DNA in Na+ buffer at 100 uM using 11-mer primer after 72 hrs by primer extension method; format: functional
[10] = tested on: Quadruplex DNA; test: Alkylating activity at 25T base of human telomeric G-quadruplex DNA in Na+ buffer at 100 uM using 9-mer primer after 72 hrs by primer extension method; format: functional
[11] = tested on: Quadruplex DNA; test: Alkylating activity at human telomeric G-quadruplex DNA in K+ buffer assessed as thermal stabilization by measuring change in melting temperature at 1.5 uM by circular dichroism spectral analysis; format: functional
[12] = tested on: Quadruplex DNA; test: Effect on conformation of human telomeric G-quadruplex DNA in K+ buffer by circular dichroism spectral analysis; format: nucleic-acid assay
[13] = tested on: Quadruplex DNA; test: Alkylating activity at 18T base of human telomeric G-quadruplex DNA in Na+ buffer at 100 uM using 9-mer primer after 72 hrs by primer extension method; format: functional
[14] = tested on: Quadruplex DNA; test: Alkylating activity at T bases of human telomeric G-quadruplex DNA in K+ buffer at 100 uM using 11-mer primer after 72 hrs by primer extension method; format: functional
[15] = tested on: Quadruplex DNA; test: Alkylating activity at human telomeric G-quadruplex DNA in Na+ buffer assessed as thermal stabilization by measuring change in melting temperature at 1.5 uM by circular dichroism spectral analysis; format: functional
[16] = tested on: Quadruplex DNA; test: Alkylating activity at 14G base of human telomeric G-quadruplex DNA in K+ buffer at 100 uM using 9-mer primer after 72 hrs by primer extension method; format: functional
[17] = tested on: Quadruplex DNA; test: Alkylating activity at 18T base of human telomeric G-quadruplex DNA in K+ buffer at 100 uM using 9-mer primer after 72 hrs by primer extension method; format: functional
[18] = tested on: Quadruplex DNA; test: Alkylating activity at 14G base of human telomeric G-quadruplex DNA in Na+ buffer at 100 uM using 9-mer primer after 72 hrs by primer extension method; format: functional
[19] = tested on: dsDNA; test: Alkylating activity at 5'-FAM-labeled T-A full-matched duplex DNA (unknown origin) in MES buffer at 100 uM measured up to 72 hrs by PAGE analysis; format: functional
[20] = Solubility of the compound in water; format: physicochemical; conditions: buffer
[21] = tested on: Quadruplex DNA; test: Alkylating activity at 24T base of human telomeric G-quadruplex DNA in Na+ buffer at 100 uM using 9-mer primer after 72 hrs by primer extension method; format: functional
[22] = Alkylating activity at 5'-FAM-labeled T-T mismatched duplex DNA (unknown origin) in MES buffer at 100 uM measured up to 72 hrs by PAGE analysis; format: functional
[23] = tested on: Quadruplex DNA; test: Alkylating activity at 19T base of human telomeric G-quadruplex DNA in Na+ buffer at 100 uM using 9-mer primer after 72 hrs by primer extension method; format: functional
[24] = tested on: Quadruplex DNA; test: Alkylating activity at 12T base of human telomeric G-quadruplex DNA in Na+ buffer at 100 uM using 9-mer primer after 72 hrs by primer extension method; format: functional
[25] = tested on: Quadruplex DNA; test: Alkylating activity at 13T base of human telomeric G-quadruplex DNA in K+ buffer at 100 uM using 9-mer primer after 72 hrs by primer extension method; format: functional
[26] = tested on: Quadruplex DNA; test: Alkylating activity at 19T base of human telomeric G-quadruplex DNA in K+ buffer at 100 uM using 9-mer primer after 72 hrs by primer extension method; format: functional
[27] = tested on: Quadruplex DNA; test: Alkylating activity at 13T base of human telomeric G-quadruplex DNA in Na+ buffer at 100 uM using 9-mer primer after 72 hrs by primer extension method; format: functional
[28] = target: Quadruplex DNA; test: Binding affinity to human telomeric G-quadruplex DNA in Na+ buffer at 9.4 uM UV-vis titration analysis; format: nucleic-acid assay
[29] = target: Quadruplex DNA; test: Binding affinity to human telomeric G-quadruplex DNA in K+ buffer at 9.4 uM by UV-vis titration analysis; format: nucleic-acid assay
[30] = Binding affinity to T-T mismatched duplex DNA (unknown origin) by isothermal calorimetric titration method

CSCCc1nc(N)nc(NCCCCNc2c3ccccc3nc3c(C(=O)NCCCN(C)C)cccc23)n1
Kd [1]: 0.44 µM | Activity [2]: inactive | Kd [3]: 0.64 µM

C=Cc1nc(N)nc(NCCCCNc2c3ccc(Cl)cc3nc3ccc(OC)cc23)n1
Activity [4]: Active | Activity [5]: Active | Activity [6]: Active | Activity [7]: inactive | Activity [8]: Active | Activity [9]: Active | Activity [10]: Active | ΔTm [11]: 12.7 °C | Activity [12]: inactive | Activity [13]: Active | Activity [14]: Active | ΔTm [15]: 5.4 °C | Activity [16]: Active | Activity [17]: Active | Activity [18]: Active | Activity [19]: inactive | solubility [20]: Soluble | Activity [21]: Active | Activity [22]: Active | Activity [23]: Active | Activity [24]: Active | Activity [25]: Active | Activity [26]: Active | Activity [27]: Active

COc1ccc2nc3cc(Cl)ccc3c(NCCCCNc3nc(N)nc(CCSC)n3)c2c1
Kd [1]: 0.61 µM | Kd [28]: 2.21 µM | Activity [2]: inactive | Kd [3]: 1.29 µM | Kd [29]: 1.94 µM

COc1ccc2nc3cc(Cl)ccc3c(NCCCCNc3nc(N)nc(N)n3)c2c1
Kd [30]: 0.51 µM

C=Cc1nc(N)nc(NCCCCNc2c3ccccc3nc3c(C(=O)NCCCN(C)C)cccc23)n1
Activity [6]: Active | Activity [8]: Active | Activity [19]: inactive | solubility [20]: Soluble | Activity [22]: inactive

C=Cc1nc(N)nc(NCCCCNc2c3ccccc3nc3c(C(=O)NCCCN(C)CCCNC(C)=O)cccc23)n1
Activity [6]: Active | Activity [8]: Active | Activity [19]: inactive | solubility [20]: Soluble | Activity [22]: inactive
